Laboratory results as given in patent publication US7572920B2, “Benzimidazole derivative and use as a II receptor antagonist” (Takeda Pharmaceutical Company Limited, priority 2004, dated 2009).
Marks after values point to notes of the source that are not given here.

Legend:
[1] = test system: angiotensin II induced pressor response; test: Inhibition of angiotensin II induced pressor response in rats; format: in vivo, Male Sprague-Dawley rats; conditions: AII 100 ng/kg i.v., test compound p.o. at dose equimolar to compound A (0.10-0.14 mg/kg), in 0.5% methylcellulose, mean±SEM
Procedure: Inhibitory Effects of Compounds of the Present Invention Against Angiotensin II Induced Pressor Response in Rats
Male Sprague-Dawley rats (9-11 weeks old, CLEA Japan, Inc.) were anesthetized with pentobarbital (50 mg/kg, i.p.) and the femoral artery and vein were isolated and cannulated with polyethylene tubes filled with saline containing heparin (200 U/mL). The catheters were subcutaneously inserted to a site in the back of the neck and fixed. After recovery period, the rat was subjected to the experiment. The arterial catheter was connected to a pressure transducer coupled to a blood pressure monitor amplifier (2238, NEC San-ei Instruments) and the pressure was recorded on a recorder (RECTI-HORIZ 8K, NEC San-ei Instruments). After establishing angiotensin II (AII, 100 ng/kg, i.v.) induced pressor responses, a test compound at a dose corresponding to an equimolar amount of compound A (2-ethoxy-1-{[2′-(5-oxo-4,5-dihydro-1,2,4-oxadiazol-3-yl)biphenyl-4-yl]methyl}-1H-benzimidazole-7-carboxylic acid) was administered. AII was administered 24 hours later and increase in the blood pressure was measured, based on which the inhibition rate from the value before the administration was calculated. All compounds were suspended in 0.5% methylcellulose and orally administered at a volume of 2 mL/kg.
The results are shown in mean±SEM (Table 1). The significance between the group administered with the compound obtained in Example 5 and the other groups was analyzed using Student's t-test ([…]).

[2] = test system: angiotensin II induced pressor response; test: Inhibition of angiotensin II induced pressor response in dogs; format: in vivo, male beagles; conditions: fasting, AII 100 ng/kg i.v., test compound p.o. at dose equimolar to compound A 1 mg/kg, in 0.5% methylcellulose, mean±SEM
Procedure: Inhibitory Effects of the Compounds of the Present Invention Against Angiotensin II Induced Pressor Response in Dogs
For the experiment, male beagles (body weight 12.0-14.7 kg, KITAYAMA LABES, CO., LTD.) were used. They were anesthetized with sodium pentobarbital (50 mg/kg, i.p.), and a tracheal tube was inserted for management of the airway. The femoral region and the back of the neck were shaved, and a disinfectant (Isodine solution, MEIJI SEIKA KAISHA, LTD.) was applied. The dog was fixed at the dorsal position and the right femoral region was incised. A mirror catheter (5 F, MILLER INDUSTRIES) was inserted and placed in the femoral artery and a polyurethane tube in the femoral vein. The catheter and tube were passed through subcutaneously and fixed at the back region. The incised region was sutured thereafter and penicillin G potassium (MEIJI SEIKA KAISHA, LTD., 40000 units) was intramuscularly administered to prevent infection. Beginning from the next day, penicillin G potassium (40000 units) was administered once a day for 3 days. After 3 days for recovery, the dog was subjected to the experiment.
During the experiment, the dog was placed in a small metabolic cage. For measurement, the mirror catheter inserted in the femoral artery was connected to a transducer unit (MILLER INDUSTRIES), and the systemic blood pressure (average blood pressure) was recorded on a recorder (RECTI-HORIZ 8 K, NEC San-ei Instruments) through a DC amplifier (N4777, NEC San-ei Instruments) and a blood pressure monitor amplifier (N4441, NEC San-ei Instruments). The polyurethane tube inserted in the femoral vein was fixed outside the cage and used for administration of AII (PEPTIDE INSTITUTE, INC.). The experiment was conducted under fasting and AII (100 ng/kg, i.v.) was administered 3 or 4 times before administration of a test compound to confirm stabilization of the vasopressor response. A dose of the test compound corresponding to an equimolar amount of compound A was suspended in 0.5% methylcellulose and orally administered at a volume of 2 mL/kg. After drug administration, AII was administered at each time point of measurement and increase in the blood pressure was measured, based on which the inhibition rate from the value before the administration was calculated.
The results are shown in mean±SEM (Table 2). The significance between the group administered with the compound obtained in Example 5 and the group administered with compound A was analyzed using Student's t-test with Bonferroni correction ([…]).

Row | SMILES | inhibition rate of AII induced increase in blood pressure, 24 hrs after administration [1] | inhibition rate of AII induced increase in blood pressure, 10 hrs after administration [2] | inhibition rate of AII induced increase in blood pressure, 24 hrs after administration [2]
1 | CCOc1nc2cccc(C(=O)OC(C)OC(=O)OC3CCCCC3)c2n1Cc1ccc(-c2ccccc2-c2noc(=O)[nH]2)cc1 (stereo not shown) [compound C, 1-(cyclohexyloxycarbonyloxy)ethyl 2-ethoxy-1-{[2′-(5-oxo-4,5-dihydro-1,2,4-oxadiazol-3-yl)biphenyl-4-yl]methyl}-1H-benzimidazole-7-carboxylate] | 9.3 ± 8.6* |  | 
2 | CCOc1nc2cccc(C(=O)OCc3oc(=O)oc3C)c2n1Cc1ccc(-c2ccccc2-c2noc(=O)[nH]2)cc1.[K] [Example 5, (5-methyl-2-oxo-1,3-dioxol-4-yl)methyl 2-ethoxy-1-{[2′-(5-oxo-4,5-dihydro-1,2,4-oxadiazol-3-yl)biphenyl-4-yl]methyl}-1H-benzimidazole-7-carboxylate potassium salt] | 32.7 ± 4.6 | 55.6 ± 3.4** | 40.3 ± 5.1*
3 | CCOc1nc2cccc(C(=O)OC)c2n1Cc1ccc(-c2ccccc2-c2noc(=O)[nH]2)cc1 [compound B, methyl 2-ethoxy-1-{[2′-(5-oxo-4,5-dihydro-1,2,4-oxadiazol-3-yl)biphenyl-4-yl]methyl}-1H-benzimidazole-7-carboxylate] | 0.8 ± 4.9** |  | 
4 | CCOc1nc2cccc(C(=O)O)c2n1Cc1ccc(-c2ccccc2-c2noc(=O)[nH]2)cc1 [compound A, 2-ethoxy-1-{[2′-(5-oxo-4,5-dihydro-1,2,4-oxadiazol-3-yl)biphenyl-4-yl]methyl}-1H-benzimidazole-7-carboxylic acid] |  | 27.0 ± 3.2 | 19.6 ± 3.7
5 | CCOc1nc2cccc(C(=O)OCOC(C)=O)c2n1Cc1ccc(-c2ccccc2-c2noc(=O)[nH]2)cc1 [compound D, acetoxymethyl 2-ethoxy-1-{[2′-(5-oxo-4,5-dihydro-1,2,4-oxadiazol-3-yl)biphenyl-4-yl]methyl}-1H-benzimidazole-7-carboxylate] | 10.9 ± 5.6* |  | 
6 | CCOc1nc2cccc(C(=O)OCc3oc(=O)oc3C)c2n1Cc1ccc(-c2ccccc2-c2noc(=O)[nH]2)cc1 [Example 2, (5-methyl-2-oxo-1,3-dioxol-4-yl)methyl 2-ethoxy-1-{[2′-(5-oxo-4,5-dihydro-1,2,4-oxadiazol-3-yl)biphenyl-4-yl]methyl}-1H-benzimidazole-7-carboxylate] |  | 35.9 ± 4.8 | 28.6 ± 4.1
